The text below walks through data of patent US20200331882A1, “COMPOUND FOR SIMULTANEOUSLY INHIBITING LSD1 AND HDAC TARGETS AND APPLICATION THEREOF” (PEKING UNIVERSITY SHENZHEN GRADUATE SCHOOL, priority 2018, published 2020).

The test system of test [1] is mouse colon cancer cell CT26.WT. As to the kind of experiment: MTT tumor cell proliferation. It counts as cell-based. The conditions noted are these: 72 h. An excerpt:
(§1) MTT colorimetric method was used to detect the inhibitory activity of a series of compounds (i.e. ZZY-001 to ZZY-016, a total of 16 kinds) of the embodiment of the present invention on the proliferation of tumor cells in vitro. The full name of MTT is 3-(4,5-dimethyl-2-thiazolyl)-2,5-diphenyl-2-H-tetrazolium romide, which is a yellow dye also known as thiazolyl blue. […] DMSO can dissolve Formazan deposited in cells and the absorbance value can be measured with a enzyme marker at a wavelength of 490 nm. In a certain range of cell number, the production of Formazan is proportional to the number of cells, so the number of living cells can be inferred according to the measured OD value.
(§2) The cell suspension was inoculated on a 96-well plate at 100 μl/well and cultured in a constant temperature CO2 incubator for 24 h. Then the tested drugs were added, 100 μl/well, and cultured for 72 h. MTT was added to a 96-well plate, 20 μl/well, and reacted for 4 h in the incubator. Absorb the supernatant, add DMSO, 150 μl/well and shake for 10 min on the plate shaker. The optical density (OD value) of each well was measured by enzyme marker at the wavelength of 490 nm.

Test [2] relates to human breast cancer cell line BT-474. Put plainly: MTT tumor cell proliferation. It counts as cell-based. The conditions noted are these: 72 h.
Source text: as §1, §2

In test [3] the test system is human colon adenocarcinoma cell HCT116. Put plainly: MTT tumor cell proliferation. The test is classed as cell-based.
Source text: as §1, §2

Test [4] concerns mouse breast cancer cell 4T1. As to the kind of experiment: MTT tumor cell proliferation. It counts as cell-based. The conditions noted are these: 72 h.
Source text: as §1, §2

In another test the target is T1, HDAC1 (Homo sapiens, UniProt Q13547).
T1 construct: purchased Enzo Biochem Inc
T1 sequence (Q13547 whole entry): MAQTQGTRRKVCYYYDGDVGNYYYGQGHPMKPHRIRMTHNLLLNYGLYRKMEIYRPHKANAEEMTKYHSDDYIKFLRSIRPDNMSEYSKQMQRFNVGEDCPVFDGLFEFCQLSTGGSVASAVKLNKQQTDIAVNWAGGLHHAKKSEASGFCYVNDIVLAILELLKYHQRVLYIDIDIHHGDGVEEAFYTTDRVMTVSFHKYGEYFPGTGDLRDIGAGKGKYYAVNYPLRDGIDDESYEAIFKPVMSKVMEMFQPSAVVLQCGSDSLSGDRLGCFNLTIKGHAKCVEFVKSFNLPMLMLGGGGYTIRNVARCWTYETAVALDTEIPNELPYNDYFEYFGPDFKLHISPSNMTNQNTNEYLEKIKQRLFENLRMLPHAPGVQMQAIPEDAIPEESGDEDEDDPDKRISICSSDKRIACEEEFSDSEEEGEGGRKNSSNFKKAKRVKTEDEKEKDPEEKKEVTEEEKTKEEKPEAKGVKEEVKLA
As to the kind of experiment: In vitro HDAC1 inhibitory activity, FLUOR DE LYS HDAC1 fluorometric assay kit. It counts as biochemical. The note with it: HDAC1 enzyme activity in vitro. An excerpt:
The principle was shown in the following reaction formula: HDAC1 catalyzes the deacetylation of a substrate FLUOR DE LYS® Substrate (containing an acetylated side chain), the product can react with FLUOR DE LYS® Developer II to generate fluorescence (shown in the following reaction process), and the inhibitory activity of a molecule to be detected on HDAC1 can be indirectly obtained by detecting the fluorescence intensity of the product. In this experiment, 360 nm was selected as the excitation wavelength and 460 nm as the emission wavelength for detection. FLUOR DE LYS® HDAC1 fluorometric drug discovery assay kit required for experiments was purchased from Enzo Biochem Inc.
During the test, the sample was prepared according to the specific experimental conditions of blocking the HDAC1 enzyme activity of the compound of the present invention in vitro in accordance with Table 2 below.

In test [5] the test system is human breast cancer cell line MDA-MB-231. Put plainly: MTT tumor cell proliferation. The note with it: 72 h. It counts as cell-based.
Source text: as §1
In the experiments of this embodiment, the selected cell lines are human breast cancer cell line MDA-MB-231 and BT-474, human colon adenocarcinoma cell HCT116, mouse colon cancer cell CT26.WT, mouse breast cancer cell 4T1. During the test, the cells in logarithmic phase and in good condition were digested with 0.25% trypsin digestion solution to make the adherent cells fall off, and the cell suspension (suspension cells without trypsin digestion) was made by counting 2-4×10^4 cells/ml. The cell suspension was inoculated on a 96-well plate at 100 μl/well and cultured in a constant temperature CO2 incubator for 24 h. Then the tested drugs were added, 100 μl/well, and cultured for 72 h. MTT was added to a 96-well plate, 20 μl/well, and reacted for 4 h in the incubator. Absorb the supernatant, add DMSO, 150 μl/well and shake for 10 min on the plate shaker. The optical density (OD value) of each well was measured by enzyme marker at the wavelength of 490 nm. […]

For test [6], the target named is T2, recombinant human LSD1 protein (Homo sapiens, UniProt O60341).
T2 construct: made in house; host or cells: E. coli
As to the kind of experiment: In vitro LSD1 inhibitory activity, LSD1-HRP coupling reaction (Amplex Red). It counts as biochemical. The note with it: LSD1 enzyme activity in vitro; 30 min preincubation; H3K4Me2 peptide. An excerpt: LSD1 activity was detected by using LSD1-HRP coupling reaction. […] During the reduction of H2O2 to H2O, Amplex Red acts as an electron donor and oxidizes to Resorufin for detection of fluorescence. […] Ampliflu™ Red, peroxidase, from horseradish required for the experiment was purchased from SIGMA; H3K4Me2 substrate peptide was purchased from GL Biochemical (Shanghai) Co., Ltd.

SMILES strings stand for the structures.

Take `N[C@@H]1C[C@H]1c1ccccc1` (racemic) [TCP, tranylcypromine, reference compound]: the concentration for half-maximal inhibition (IC50) – broadly, the concentration that inhibits the measured activity by half – in test [1] was > 10000 nM; in test [2] it was > 10 µM; in test [3] (72 h) it was > 10000 nM; in test [4], > 10 µM; against HDAC1 it was > 100000 nM; in test [5] it was > 10000 nM.
On to `Cc1cc(/C=C/C(=O)NO)ccc1-c1ccc(N2CCNCC2)cc1` [ZZY-001], for which the IC50 in test [1] (Mus musculus) was determined as 2200 nM; in test [2] (Homo sapiens) it was 17.8 µM; in test [3] (Homo sapiens, HCT-116, 72 h), 1540 nM; in test [4] (Mus musculus), 3.87 µM; against HDAC1, 671 nM; in test [5] (Homo sapiens) it was 2320 nM. In test [6], the IC50 came to 1550 nM.
With `Cc1cc(/C=C/C(=O)NO)ccc1-c1ccc(N2CCNCC2)cc1NC(=O)c1ccccc1` [ZZY-002], the IC50 in test [1] (Mus musculus) amounted to 31200 nM; in test [2] (Homo sapiens), 7.56 µM; in test [3] (Homo sapiens, HCT-116, 72 h), 1290 nM; in test [4] (Mus musculus), 5.61 µM; on HDAC1, 71.6 nM; in test [5] (Homo sapiens), 1370 nM. Moreover, the 50% inhibitory concentration (IC50) in test [6] came out at 1320 nM.
For the compound `Cc1ccc(C(=O)Nc2cc(N3CCNCC3)ccc2-c2ccc(C(=O)Nc3ccccc3N)cc2C)cc1` [ZZY-005], the half-maximal inhibitory concentration (IC50) came to 8940 nM against HDAC1 and 5160 nM in test [6].
The matching figures for `Cc1cc(C(=O)Nc2ccccc2N)ccc1-c1ccc(N2CCNCC2)cc1` [ZZY-006]: 5380 nM and 2380 nM.
For the compound `Cc1cc(/C=C/C(=O)NO)ccc1-c1ccc(N2CCOCC2)cc1` [ZZY-007], the figures for the half-inhibitory concentration (IC50) (on HDAC1; in test [6]) were 1110 nM and 477 nM, respectively.
`O=C(/C=C/c1ccc(-c2ccc(N3CCOCC3)cc2)cc1)NO` [ZZY-008]: the half-inhibitory concentration (IC50) was determined as 9360 nM on HDAC1 and 716 nM in test [6].
As to `Cc1cc(/C=C/C(=O)NO)ccc1-c1ccc(-n2ccnc2)cc1` [ZZY-009], the concentration for half-maximal inhibition (IC50) worked out at 2800 nM against HDAC1 and 1400 nM in test [6].
Regarding `O=C(/C=C/c1ccc(-c2ccc(-n3ccnc3)cc2)cc1)NO` [ZZY-010], the IC50 on HDAC1 worked out at 3520 nM; in test [6], 8260 nM.
As to `Cc1cc(/C=C/C(=O)NO)ccc1-c1ccc(N2CCN(C)CC2)cc1` [ZZY-011], the half-inhibitory concentration (IC50) in test [1] (Mus musculus) turned out to be 1050 nM; in test [2] (Homo sapiens), 5.9 µM; in test [3] (Homo sapiens, HCT-116, 72 h), 728 nM; in test [4] (Mus musculus) it was 2.6 µM; against HDAC1, 434 nM; in test [5] (Homo sapiens), 2040 nM. Moreover, the half-maximal inhibitory concentration (IC50) in test [6] worked out at 131 nM.
On to `CN1CCN(c2ccc(-c3ccc(/C=C/C(=O)NO)cc3)cc2)CC1` [ZZY-012], for which the IC50 in test [1] (Mus musculus) amounted to 737 nM; in test [2] (Homo sapiens) it was 4.21 µM; in test [3] (Homo sapiens, HCT-116, 72 h), 469 nM; in test [4] (Mus musculus), 2.32 µM; against HDAC1 it was 942 nM; in test [5] (Homo sapiens), 1140 nM. Moreover, in test [6], the IC50 worked out at 16.1 nM.
`Cc1cc(/C=C/C(=O)NO)ccc1-c1ccc(N2CCCCC2)cc1` [ZZY-013]: the figures for the IC50 (on HDAC1; in test [6]) were 9640 nM and 1410 nM, respectively.
In the case of `O=C(/C=C/c1ccc(-c2ccc(N3CCCCC3)cc2)cc1)NO` [ZZY-014], the IC50 turned out to be 9860 nM at HDAC1 and 1110 nM in test [6].
Regarding `Cc1cc(/C=C/C(=O)NO)ccc1-c1ccc(N2CCNCC2)nc1` [ZZY-015], the IC50 stood at 262 nM on HDAC1 and 879 nM in test [6].
In the case of `O=C(/C=C/c1ccc(-c2ccc(N3CCNCC3)nc2)cc1)NO` [ZZY-016], the concentration for half-maximal inhibition (IC50) at HDAC1 worked out at 451 nM; in test [6], 991 nM.
